The text below walks through data of patent publication US8791084B2, “Inhibition of SOX9 function in the treatment of proteoglycan-associated pathophysiological conditions” (Robarts Research Institute, priority 2006, dated 2014).

Data set [1] has as its system rat primary astrocyte cultures. The data set can be described thus: Cytokine treatment of primary astrocyte cultures, mRNA levels by Q-PCR. Format: cell-based. To be noted: for XT-II mRNA: 6 week-old primary astrocyte cultures, 1, 10 or 100 ng/ml cytokine, 12 hour exposure, relative to untreated cultures; for SOX9 mRNA levels: primary astrocyte cultures after cytokine treatments; for Fibronectin expression / Laminin expression: primary astrocyte cultures following cytokine treatments. How it is done:
(§1) Primary astrocyte cultures were prepared from newborn rats at postnatal day 1 (P1) (Wilson and Dixon 1989). The upper portion of the skull was removed and the meninges carefully dissected away to avoid contamination of the culture with fibroblasts. The neocortices were removed, placed into serum-free advanced D-MEM (Dulbecco's Modified Eagle Medium, Invitrogen), homogenized by pipeting and gravity-filtered through 70 μm cell strainer (Falcon). The cells were plated onto 6-well dishes (Falcon). […] Cytokine treatments of primary astrocytes with PDGF, IL-6, TNFα and TGFβ2 (R and D systems) and bFGF2 (Invitrogen) were carried out for 12 hours. RNA was extracted using the Qiagen (Germany) RNA-easy kit following manufacturer's specifications. The transfections of primary astrocytes with SiRNAs and the CMV-SOX9 expression construct were conducted using Lipofectamine 2000 (Invitrogen) according to manufacturer's specifications in 6-well dishes (Falcon). The siRNA ([…]) (SEQ ID No. 4) was used at a concentration of 150 pM. The universal negative control scrambled SiRNA was used according to manufacturer's (Invitrogen) specifications. Transfection efficiencies with a fluorescently-tagged control SiRNA was 35%-40%. The CMV-SOX9 construct has previously been described (Foster et al. 1994; Lefebvre et al. 1997) and plasmid transfection efficiency estimated by cotransfection with a CMV-GFP construct was approximately 10%.
(§2) First strand cDNA was synthesized from 1 μg RNA per condition (cell culture or animal tissue) using the High Capacity cDNA Archive Kit according to the manufacturer protocol (Applied Biosystems Foster City Calif.). The primer probe sets, optical adhesive covers, and PCR plates were purchased from Applied Biosystems (Foster City, Calif.). The probes were labeled with 5′ FAM and with 3′TAMRA as quencher with the exception of the ribosomal probe, which was labeled with 5′ VIC. For Taq Man assays the thermal cycler conditions were 10 minutes at 95° C. followed by 40 cycles of 30 seconds at 95° C. followed by 30 seconds at 60° C. A standard curve of cycle thresholds using cDNA serial dilutions was established and used to calculate abundance of each target mRNA. Technical triplicates and at least biological triplicates were run on all conditions tested. Values were normalized to the amounts of 18S mRNA as determined by Q-PCR. The data were analyzed by a two way ANOVA following by a Bonferroni test with Dunn's correction for multiple comparisons or Dunnet's procedure when comparisons were made with a single variable (control). Student's t-test was used when only two groups were compared.
To evaluate TGFβ2, PDGF and IL-6 as candidate XT-I, XT-II and C4ST transcriptional regulators, rat primary astrocyte cultures were exposed to 1, 10 or 100 ng/ml of each cytokine. After a 12 hour cytokine exposure, XT-I, XT-II and C4ST mRNA levels were measured relative to untreated cultures by Q-PCR. Six week-old cultures were used as, by this time point, the astrocytes are quiescent (as evidenced by reduced GFAP expression) and baseline levels of XT-I, XT-II and C4ST genes are low.
To test whether SOX9 regulates expression of XT-I, XT-II and C4ST in vitro, primary astrocytes were transfected with a SOX9 expression construct and assessed for CBG mRNA levels by Q-PCR 48 hours later. […] The levels of fibronectin and laminin mRNA in these same cultures were unaffected by SOX9 over-expression. To determine whether IL-6, PDGF and TGF[…]2 might increase XT-I, XT-II and C4ST gene expression by up-regulating SOX9 expression, the expression levels of SOX9 mRNA were assayed after these cytokine treatments in primary astrocyte cultures.

Data set [2] concerns rat primary astrocyte cultures. The data set can be described thus: Slot blot analysis of CSPG protein (CS56) in cytokine-treated primary astrocytes. Type of data set: cell-based. The procedure: as §1
Tissue and cell samples were lysed in RIPA buffer [20 mM, Tris-HCl (pH 7.6), 150 mM NaCl, 0.5% sodium deoxycholate, 1% Triton X-100, 0.1% SDS]. […] Immunoreactive bands were scanned by an imaging densitometer (BioRad GF-700 Imaging Densitometer, Mississauga, ON); and results were quantified using Multi-Analist software (BioRad, Mississauga, ON). […]
To evaluate TGFβ2, PDGF and IL-6 as candidate XT-I, XT-II and C4ST transcriptional regulators, rat primary astrocyte cultures were exposed to 1, 10 or 100 ng/ml of each cytokine. After a 12 hour cytokine exposure, XT-I, XT-II and C4ST mRNA levels were measured relative to untreated cultures by Q-PCR. […]

For data set [3], the system named is SOX9. Description: SOX9 knock-down by anti-SOX9 siRNA transfection of primary astrocytes, mRNA levels by Q-PCR. Type of data set: cell-based, rat. How it is done: as §1, §2
To test the effect of SOX9 knock-down on the expression of XT-I, XT-II and C4ST, a control (scrambled) small interfering RNA (SiRNA) or an anti-SOX9 SiRNA was transfected into primary astrocytes and mRNA levels of SOX9, XT-I, XT-II and C4ST were assayed by Q-PCR 12 hours later. […] (FIG. 7 E, F).

In data set [4] the test system is SOX9. Description: SOX9 luciferase reporter construct assay in primary astrocytes. Type of data set: cell-based, rat. From the text:
Astrocytes, such as wither primary astrocytes (rodent or human) or an established astrocyte cell line designated as Neu7 (Fok-Seang, Smith-Thomas et al. 1995), were transfected with a SOX9 reporter construct under standard conditions. The SOX9 reporter construct (a gift from Dr. Michael Underhill, University of British Columbia) has 4 repeats of the SOX9 binding site coupled to the mouse Col2a1 minimal promoter (−89 to +6) cloned upstream of a luciferase gene in the plasmid pGL4 (Promega) (Weston, Chandraratna et al. 2002). Changes in luciferase levels in transfected cultures is used as a read-out of SOX9 activity. The anti-SOX9 SiRNA previously used (or astrocytes from the SOX9 conditional knock out) is used as a positive control and the scrambled siRNA is used as a negative control for this screen. The screen is used to identify compounds that reduce the levels of luciferase activity relative to control wells. […]
Specifically, primary astrocytes obtained from newborn rats were cultured in 6-well dishes for 6 weeks in Advanced-DMEM with 10% FBS. […] Transfection efficiency was calculated by co-transfection with a control plasmid. […] Twenty-four hours after the TGF-β2 application the cells were lysed and luciferase activity was measured using the Luciferase Assay System (PROMEGA) (according to the manufacturer's protocol) and a luminometer.

Setting [5] is: SOX9 knock-down in primary astrocytes.
Setting [6] is: TGFβ2-treated primary astrocytes.
The mark [7] stands for this setting: primary astrocytes, 12 hours after transfection, siRNA 150 pM.
The mark [8] stands for this setting: TGFβ2 treatment alone, primary astrocytes.

As to “bFGF: cytokine (Invitrogen) used to treat primary astrocytes”, in data set [1], the “XT-II mRNA” value is “no effect”.
PDGF: in data set [2], the CSPG protein expression result is listed as “increased expression”. Also, in data set [1], the “XT-II mRNA” value is “strong, concentration-dependent up-regulation”; the “SOX9 mRNA levels” value is reported as “significant increase”; the Fibronectin expression entry is recorded as “similarly increased”; the Laminin expression entry was “similarly increased”.
On to “AAAGUUGUCGCUCCCACUGAAGUUU (listed as RNA, chemistry not given here) [anti-SOX9 siRNA, small interfering RNA against SOX9, used at 150 pM in primary astrocytes]”, for which, in the data set on SOX9 [3] (setting [5]), the fibronectin gene expression result is listed as “did not decrease” and the laminin gene expression result is listed as “did not decrease”. In the data set on SOX9 [3] (setting [6]), the “reduction in SOX9 mRNA levels” value turned out to be 87±13% and the “reduction in XT-I mRNA” value is on record as 68±6.4%. Also, in the data set on SOX9 [3] (setting [7]), the “reduction in SOX9 mRNA levels” value was 75±12% and the “reduction in XT-I mRNA” value amounted to 71±5.5%.
With “TGFβ2: cytokine (R and D systems) used to treat primary astrocytes”, in the data set on SOX9 [3] (setting [8]), the “SOX9 mRNA levels” value is “increased” and the “XT-1 mRNA levels” value is “increased”. The luciferase activity result with SOX9 [4] (SOX9 luciferase reporter construct following treatment (FIG. 10)) is listed as “increased”. The “increase in luciferase activity” value in the data set with SOX9 [4] (TGF-β2 final concentration 10 nM, 24 hours, primary astrocytes from newborn rats cultured 6 weeks) is recorded as around 2 fold. Moreover, the CSPG protein expression result in data set [2] is on record as “increased expression”. In data set [1], the “XT-II mRNA” value is recorded as “strong, concentration-dependent up-regulation”; the “SOX9 mRNA levels” value is given as “significant increase”; the Fibronectin expression entry was “similarly increased”; the Laminin expression result was “similarly increased”.
Consider “IL-6: cytokine (R and D systems) used to treat primary astrocytes”, for which the CSPG protein expression result in data set [2] is “increased expression”. In data set [1], the “XT-II mRNA” value is recorded as “strong, concentration-dependent up-regulation”; the “SOX9 mRNA levels” value is on record as “significant increase”; the Fibronectin expression result is recorded as “similarly increased”; the Laminin expression entry is on record as “similarly increased”.
